# Data: patent US20100119452A1, “SCREENING METHOD” (Takeda Pharmaceutical Company Limited, priority 2007, published 2010)
# What was measured:
# [1] = tested on: LNCaP-hr cells; assay: Antitumor test using nude mice transplanted with LNCaP-hr cells; assay type: in vivo; conditions: castrated nude mice, LNCaP-hr subcutaneous, 15 mg/kg orally twice daily for three weeks; for T/C (tumor volume): control 100%, start of administration 0%
# Experimental: LNCaP-hr cells were suspended in Matrigel, and 5×10^6 cells were transplanted subcutaneously into the flank of castrated nude mice. When tumor volume reached approximately 100 mm^3, the animals were grouped based on the tumor volume, and administered orally with 15 mg/kg body weight of the compound twice daily for three weeks. The tumor volume was calculated based on the assumption that the volume of the control group was 100% and the volume of the treated group at the start of the administration was 0% (T/C %).
# [2] = tested on: androgen receptors; assay: Reporter assay using LNCaP-hr cells (6k-PSA promoter, firefly luciferase); assay type: cell-based, human; conditions: LNCaP-hr cells with PSA promoter-luciferase, 24 hours after addition
# Experimental: As a negative control compound, conventional AR antagonist, bicalutamide was used. 6k-PSA promoter and firefly luciferase gene were used as a PSA promoter and a reporter gene, respectively.
# LNCaP-hr cells transfected with a reporter gene linked to a PSA promoter were plated on 96-well plates at a density of 50,000 cells/100 μL/well, to which the test compounds were added after the cells were cultured for 8 hours. The reporter activity was determined 24 hours after the addition of the test compounds. The suppressing activity of the test compounds on the reporter gene was calculated based on the assumption that the reporter activity in the cells without the addition of the test compounds (control group) was 100% and the reporter activity of the non-treated LNCaP-hr cells without introduction of the reporter gene was 0%.
SMILES,Antitumor activity [1],T/C (tumor volume) [1],Suppressing activity on the reporter gene [2]
Cc1cc(-c2ccc(C#N)cc2)c(C)n1Cc1cc(C(F)(F)F)n[nH]1 [Compound 6],antitumor activity was observed,T/C = −3%,Concentration-dependent suppressing activity on the reporter gene was observed
Cc1cc(-c2ccc(C#N)cc2)c(C#N)n1Cc1cc(C(F)(F)F)n[nH]1 [Compound 8],antitumor activity was observed,T/C = −5%,Concentration-dependent suppressing activity on the reporter gene was observed
Cc1cc(-c2ccc(C#N)cc2)c(C)n1Cc1cn[nH]c1C(C)(C)O [Compound 9],antitumor activity was observed,T/C = 24%,Concentration-dependent suppressing activity on the reporter gene was observed
